The melting point is the temperature of the solid-liquid transition.

The test system of data set [1] is Magnaporthe grisea (Pyricularia oryzae). Briefly: whole plant or invertebrate. The data set is classed as in vivo, Magnaporthe grisea on rice leaf segments cv. Ballila. The following applies: foliar, read-out: control of Magnaporthe grisea.
Data set [2] has the same test system. Briefly: microbe, parasite or virus in culture. The settings on record: read-out: control of Magnaporthe grisea. The data set is classed as cell-based.
For data set [3], the system named is Fusarium culmorum. Kind of data set: whole plant or invertebrate. Format: in vivo, Fusarium culmorum on wheat spikelets cv. Monsun. The following applies: in Triticum aestivum, read-out: control of Fusarium culmorum.
Another data set concerns Sclerotinia sclerotiorum. Briefly: Sclerotinia sclerotiorum / liquid culture (cottony rot). The following applies: growth inhibition photometrically 3-4 days after application, vs untreated control. Format: cell-based. Here is the method: Sclerotinia sclerotiorum/Liquid Culture (Cottony Rot)
Mycelia fragments of a newly grown liquid culture of the fungus are directly mixed into nutrient broth (Vogels broth). After placing a (DMSO) solution of test compound into a microtiter plate (96-well format) the nutrient broth containing the fungal material is added. The test plates are incubated at 24° C. and the inhibition of growth is determined photometrically 3-4 days after application.

Data set [4] concerns Botryotinia fuckeliana (Botrytis cinerea). Briefly: Botryotinia fuckeliana (Botrytis cinerea) / liquid culture (gray mould). Format: cell-based. The following applies: growth inhibition photometrically 3-4 days after application, vs untreated control. The protocol: Botryotinia fuckeliana (Botrytis cinerea)/Liquid Culture (Gray Mould)
Conidia of the fungus from cryogenic storage are directly mixed into nutrient broth (Vogels broth). After placing a (DMSO) solution of test compound into a microtiter plate (96-well format), the nutrient broth containing the fungal spores is added. The test plates are incubated at 24° C. and the inhibition of growth is determined photometrically 3-4 days after application.

In data set [5] the test system is Glomerella lagenarium (Colletotrichum lagenarium). Briefly: Glomerella lagenarium (Colletotrichum lagenarium) / liquid culture (anthracnose). Format: cell-based. The following applies: Colletotrichum orbiculare, growth inhibition photometrically 3-4 days after application, vs untreated control. Here is the method: Conidia of the fungus from cryogenic storage are directly mixed into nutrient broth (PDB potato dextrose broth). After placing a (DMSO) solution of test compound into a microtiter plate (96-well format), the nutrient broth containing the fungal spores is added. The test plates are incubated at 24° C. and the inhibition of growth is measured photometrically 3-4 days after application.

Data set [6] deals with Fusarium culmorum. Briefly: microbe, parasite or virus in culture. The data set is classed as cell-based. The settings on record: read-out: control of Fusarium culmorum.

Structures are written as SMILES.

Regarding `C#CCC(C)(Cc1ccccc1)C(=O)Nc1cc2cccc(F)c2nc1C` (stereo not drawn) [Compound E-2, 2-benzyl-N-(8-fluoro-2-methyl-3-quinolyl)-2-methyl-pent-4-ynamide], the pest or weed control at 200 ppm (in data set [1]; in the data set on Fusarium culmorum [3]) was at least 80% each time. Moreover, the inhibition of growth at 200 ppm in data set [2] was at least 80%.
With `C#CCC(C)(Cc1ccccc1)C(=O)Nc1cnc2c(F)cccc2c1C` (stereo not drawn) [Compound E-3, 2-benzyl-N-(8-fluoro-4-methyl-3-quinolyl)-2-methyl-pent-4-ynamide], the inhibition of growth at 200 ppm in data set [2] was at least 80%.
`C=C(Cl)CC(Cc1ccccc1)C(=O)Nc1cnc2c(F)cccc2c1C` (stereo not drawn) [Compound E-5, 2-benzyl-4-chloro-N-(8-fluoro-4-methyl-3-quinolyl)pent-4-enamide]: the melting point was in the range of 53 to 58 °C. Further, in the data set on Sclerotinia sclerotiorum, the inhibition of growth at 20 ppm was at least 80%. In data set [2], the inhibition of growth at 200 ppm was at least 80%. Further, the pest or weed control at 200 ppm with Fusarium culmorum [3] is at least 80%.
For `C=C(Cl)CC(Cc1ccccc1)C(=O)Nc1cnc2c(F)cccc2c1` (stereo not drawn) [Compound E-6, 2-benzyl-4-chloro-N-(8-fluoro-3-quinolyl)-pent-4-enamide], the melting point was 166 to 168 °C. Further, in data set [1], the pest or weed control at 200 ppm is at least 80%. Also, in data set [2], the inhibition of growth at 200 ppm is at least 80%.
Take `Cc1c(NC(=O)C(C)(Cc2ccccc2)CC(F)(F)F)cnc2c(F)cccc12` (stereo not drawn) [Compound E-50, 2-benzyl-4,4,4-trifluoro-N-(8-fluoro-4-methyl-3-quinolyl)-2-methyl-butanamide]: the melting point lay in the range of 106 to 109 °C. For the same molecule, in data set [1], the pest or weed control at 200 ppm was at least 80%. For the same molecule, the pest or weed control at 200 ppm in the data set with Fusarium culmorum [3] is at least 80%.
With `C=CCC(C)(Cc1ccccc1)C(=O)Nc1cnc2c(F)cccc2c1` (stereo not drawn) [Compound E-78, 2-benzyl-N-(8-fluoro-3-quinolyl)-2-methyl-pent-4-enamide], the melting point is 146 to 149 °C. Moreover, the inhibition of growth at 200 ppm in data set [2] is at least 80%. In the data set on Fusarium culmorum [3], the pest or weed control at 200 ppm was at least 80%.
Turning to `Cc1c(NC(=O)C(C)(Cc2ccccc2)CC(C)C)cnc2c(F)cccc12` (stereo not drawn) [Compound E-84, 2-benzyl-N-(8-fluoro-4-methyl-3-quinolyl)-2,4-dimethyl-pentanamide], the melting point is 73 to 79 °C. The inhibition of growth at 20 ppm in the data set with Sclerotinia sclerotiorum was at least 80%. Also, the inhibition of growth at 200 ppm in data set [2] was at least 80%. Besides, the pest or weed control at 200 ppm with Fusarium culmorum [3] is at least 80%.
For `CC(C)CC(C)(Cc1ccccc1)C(=O)Nc1cnc2ccccc2c1` (stereo not drawn) [Compound E-85, 2-benzyl-2,4-dimethyl-N-(3-quinolyl)pentanamide], the melting point fell in the range of 147 to 148 °C. Further, the inhibition of growth at 200 ppm in data set [2] is at least 80%.
`Cc1nc2c(F)cccc2cc1NC(=O)C(C)(Cc1ccccc1)CC(C)C` (stereo not drawn) [Compound E-86, 2-benzyl-N-(8-fluoro-2-methyl-3-quinolyl)-2,4-dimethyl-pentanamide] returned an inhibition of growth at 20 ppm in the data set with Sclerotinia sclerotiorum of at least 80%. The inhibition of growth at 200 ppm in data set [2] was at least 80%. For the same molecule, the pest or weed control at 200 ppm with Fusarium culmorum [3] is at least 80%.
As for `C=C(C)CC(Cc1ccccc1)C(=O)Nc1cnc2c(F)cccc2c1` (stereo not drawn) [Compound E-94, 2-benzyl-N-(8-fluoro-3-quinolyl)-4-methyl-pent-4-enamide], the melting point lay within 170 to 172 °C. The inhibition of growth at 200 ppm in data set [2] was at least 80%.
`C#CCC(Cc1ccccc1)C(=O)Nc1cnc2c(F)cccc2c1C` (stereo not drawn) [Compound E-95]: in data set [2], the inhibition of growth at 200 ppm was at least 80%.
Turning to `CC(C)(C)CC(Cc1ccccc1)C(=O)Nc1cnc2c(F)cccc2c1` (stereo not drawn) [Compound E-98, 2-benzyl-N-(8-fluoro-3-quinolyl)-4,4-dimethyl-pentanamide], the inhibition of growth at 200 ppm (in data set [4]; in data set [5]; in data set [2]; with Fusarium culmorum [6]) was at least 80% each time. Moreover, in data set [1], the pest or weed control at 200 ppm was at least 80%.
`Cc1nc2c(F)cccc2cc1NC(=O)C(C)(Cc1ccccc1)CC1(C)CC1` (stereo not drawn) [Compound E-99, 2-benzyl-N-(8-fluoro-2-methyl-3-quinolyl)-2-methyl-3-(1-methylcyclopropyl)propanamide] returned a melting point of 151 to 152 °C. The inhibition of growth at 200 ppm in data set [4] was at least 80%. The pest or weed control at 200 ppm in data set [1] was at least 80%. For the same molecule, the inhibition of growth at 200 ppm in data set [5] is at least 80%. In addition, the inhibition of growth at 200 ppm in data set [2] was at least 80%. Besides, in the data set on Fusarium culmorum [3], the pest or weed control at 200 ppm was at least 80%. In the data set on Fusarium culmorum [6], the inhibition of growth at 200 ppm is at least 80%.
Regarding `Cc1c(NC(=O)[C@@](C)(Cc2ccccc2)CC(C)C)cnc2c(F)cccc12` [Compound F-4, (2R)-2-benzyl-N-(8-fluoro-4-methyl-3-quinolyl)-2,4-dimethyl-pentanamide], the pest or weed control at 200 ppm (in data set [1]; with Fusarium culmorum [3]) was at least 80% throughout. In addition, the inhibition of growth at 20 ppm in the data set with Sclerotinia sclerotiorum was at least 80%. Moreover, the inhibition of growth at 200 ppm in data set [2] is at least 80%.
In the case of `CC(C)C[C@](C)(Cc1ccccc1)C(=O)Nc1cnc2c(F)cccc2c1` [Compound F-19, (2R)-2-benzyl-N-(8-fluoro-3-quinolyl)-2,4-dimethyl-pentanamide], the inhibition of growth at 200 ppm in data set [2] was at least 80%. Further, the pest or weed control at 200 ppm in the data set on Fusarium culmorum [3] was at least 80%.
For `CC(C)C[C@@](C)(Cc1ccccc1)C(=O)Nc1cnc2c(F)cccc2c1` [Compound F-20, (2S)-2-benzyl-N-(8-fluoro-3-quinolyl)-2,4-dimethyl-pentanamide], the inhibition of growth at 20 ppm in the data set on Sclerotinia sclerotiorum is at least 80%. Further, the inhibition of growth at 200 ppm in data set [2] is at least 80%. Further, in the data set with Fusarium culmorum [3], the pest or weed control at 200 ppm is at least 80%.
For `C=C(C)C[C@@](C)(Cc1ccccc1)C(=O)Nc1cnc2c(F)cccc2c1` [Compound F-21, (2S)-2-benzyl-N-(8-fluoro-3-quinolyl)-2,4-dimethyl-pent-4-enamide], the pest or weed control at 200 ppm (in data set [1]; in the data set on Fusarium culmorum [3]) was at least 80% throughout. In the data set on Sclerotinia sclerotiorum, this molecule showed an inhibition of growth at 20 ppm of at least 80%. The inhibition of growth at 200 ppm in data set [2] was at least 80%.
As to `C=C(C)C[C@](C)(Cc1ccccc1)C(=O)Nc1cnc2c(F)cccc2c1` [Compound F-22, (2R)-2-benzyl-N-(8-fluoro-3-quinolyl)-2,4-dimethyl-pent-4-enamide], the inhibition of growth at 200 ppm in data set [2] is at least 80%.
With `C=C(Cl)C[C@H](Cc1ccccc1)C(=O)Nc1cc2cccc(F)c2nc1C` [Compound F-26, (2S)-2-benzyl-4-chloro-N-(8-fluoro-2-methyl-3-quinolyl)pent-4-enamide], the inhibition of growth at 200 ppm (in data set [4]; in data set [5]; in data set [2]; in the data set on Fusarium culmorum [6]) was at least 80% throughout. Further, the pest or weed control at 200 ppm (in data set [1]; in the data set with Fusarium culmorum [3]) was at least 80% throughout. The inhibition of growth at 20 ppm with Sclerotinia sclerotiorum is at least 80%.
`Cc1nc2c(F)cccc2cc1NC(=O)[C@@](C)(Cc1cccc(F)c1)CC(F)(F)F` [Compound F-31, (2S)-4,4,4-trifluoro-N-(8-fluoro-2-methyl-3-quinolyl)-2-[(3-fluorophenyl)methyl]-2-methyl-butanamide]: the inhibition of growth at 200 ppm in data set [4] and in data set [5] was at least 80% throughout. Besides, the pest or weed control at 200 ppm (in data set [1]; in the data set on Fusarium culmorum [3]) was at least 80% in each case. The molecule further had an inhibition of growth at 20 ppm with Sclerotinia sclerotiorum of at least 80%.
Turning to `Cc1nc2c(F)cccc2cc1NC(=O)[C@H](Cc1ccccc1)CC(C)(C)C` [Compound F-33, (2S)-2-benzyl-N-(8-fluoro-2-methyl-3-quinolyl)-4,4-dimethyl-pentanamide], the inhibition of growth at 200 ppm (in data set [4]; in data set [5]; in data set [2]; with Fusarium culmorum [6]) was at least 80% in each case.
Consider `Cc1nc2c(F)cccc2cc1NC(=O)[C@H](Cc1ccccc1)CC1(C)CC1` [Compound F-37, (2S)-2-benzyl-N-(8-fluoro-2-methyl-3-quinolyl)-3-(1-methylcyclopropyl)propanamide], for which the inhibition of growth at 200 ppm (in data set [4]; in data set [5]; in data set [2]; with Fusarium culmorum [6]) was at least 80% each time. In addition, the pest or weed control at 200 ppm in the data set with Fusarium culmorum [3] is at least 80%.
For the molecule `Cc1c(NC(=O)[C@H](Cc2ccccc2)CC2(C)CC2)cnc2c(F)cccc12` [Compound F-39, (2S)-2-benzyl-N-(8-fluoro-4-methyl-3-quinolyl)-3-(1-methylcyclopropyl)propanamide], the inhibition of growth at 200 ppm (in data set [4]; in data set [5]; in data set [2]; in the data set on Fusarium culmorum [6]) was at least 80% each time.
Turning to `C=C(Cl)C[C@@](C)(Cc1ccccc1)C(=O)Nc1cc2cccc(F)c2nc1C` [Compound F-43, (2R)-2-benzyl-4-chloro-N-(8-fluoro-2-methyl-3-quinolyl)-2-methyl-pent-4-enamide], the inhibition of growth at 200 ppm in data set [4] and in data set [5] was at least 80% throughout. For the same molecule, the pest or weed control at 200 ppm (in data set [1]; in the data set on Fusarium culmorum [3]) was at least 80% each time.

These data come from patent US20220030867A1 (priority 2018, published 2022).
